Test results taken from patent EP1056460B1, “PHARMACEUTICAL PREPARATIONS FOR SELECTIVELY SUPPLEMENTING OESTROGEN DEFICIENCY IN THE CENTRAL NERVOUS SYSTEM” (priority 1998, dated 1999).

Legend:
Uterus [1] = test: Uterus wet weight after chronic subcutaneous application (osmotic minipumps, 7 days) in ovariectomised rats; assay type: in vivo, Wistar-Ratten
Text: Geschlechtsreife (drei Monate alt, Gewicht 250±30 g) weibliche Wistar-Ratten (Tierzucht Schönwalde GmbH, Deutschland) wurden unter Ketamin-Narkose ovarektomiert. […] Am 7. Behandlungstag wurden die Tiere getötet und die Uterus-Feuchtgewichte (bezogen auf 100 g Körpergewicht) ermittelt.
Geschlechtsreife (drei Monate alt, Gewicht 250±30 g) weibliche Wistar-Ratten (Tierzucht Schönwalde GmbH, Deutschland) wurden unter Ketamin-Narkose ovarektomiert. […] Unmittelbar nach der Tötung der Tiere, wurden die Uterus-Feuchtgewichte (bezogen auf 100 g Körpergewicht) ermittelt. Die Messenger-Ribonukleinsäure (mRNA), die die Biosynthese von Oxytozin codiert, wurde durch in-situ-Hybridisierung mit einer spezifischen radioaktiv-markierten Oligodeoxynukleotid-Sonde nach einer etablierten Methode (Fischer D et al, Lactation as a model of naturally reversible hypercorticalism: plasticity in the mechanism governing hypothalamo-pituitary-adrenal activity in the rat, J Clin Invest 96: 1208-1215, 1995), 1995) im hypothalamischen Nucleus paraventricularis (PVN) dargestellt. Behandlungsbedingte Veränderungen in der Transkription des Oxytocin-Gens wurden durch densitometrische Messungen der spezifischen Hybridisierungssignale innerhalb der definierten anatomischen Stukturen quantifiziert.
(§1) Jeder Punkt stellt x ± SEM von 5-7 Einzelbestimmungen.

[2] = test system: Alpha-Isoform des Estrogenrezeptors (ERa); test: Activation of transcription of an ERa-dependent luciferase reporter gene in MCF-7/2A cells; assay type: cell-based; settings: EREwtcLUC reporter, 10^-11 to 10^-8 M, 48 h, fold lower than 17b-Estradiol
Text: Brustkrebszellen MCF-7/2A, die die Alpha-Isoform des Estrogenrezeptors (ERa) exprimieren, wurden mit dem Reporter-Plasmid EREwtcLUC stabil transfiziert. Der Reporter enthält den Estrogen-Response Element (ERE) von Vitellogenin, einen Thymidinkinase-Promotor und das Luciferase-codierende Gen von Photinus pyralis. […] Die Zellen wurden lysiert und die Transkription des Luciferase-Reportergens wurde durch Bestimmung der Luciferase-Aktivität mit einem spezifischen Testansatz (Serva/Promega, Deutschland) ermittelt.
Die Figur stellt die Mittelwerte von zwei unabhängigen Versuchen dar.

Oxytocin-Gens = test: Oxytocin mRNA in the hypothalamic paraventricular nucleus by in-situ hybridisation after chronic treatment in vivo; design: species or system Wistar-Ratten; settings: ovariectomised rats, 0,01, 0,1 and 1 µg daily s.c. for 7 days; effect of the prototype very similar to 17b-Estradiol
Text: Geschlechtsreife (drei Monate alt, Gewicht 250±30 g) weibliche Wistar-Ratten (Tierzucht Schönwalde GmbH, Deutschland) wurden unter Ketamin-Narkose ovarektomiert. […] Unmittelbar nach der Tötung der Tiere, wurden die Uterus-Feuchtgewichte (bezogen auf 100 g Körpergewicht) ermittelt. […] Behandlungsbedingte Veränderungen in der Transkription des Oxytocin-Gens wurden durch densitometrische Messungen der spezifischen Hybridisierungssignale innerhalb der definierten anatomischen Stukturen quantifiziert.
as §1

bcl-2 = bcl-2 transcripts in the dentate gyrus of the hippocampus by in-situ hybridisation after chronic treatment in vivo; design: species or system Wistar-Ratten; settings: ovariectomised rats, 0,01, 0,1 and 1 µg daily s.c. for 7 days; effect of the prototype identical to equal doses of 17b-Estradiol
Text: Das Untersuchungsmaterial stammte von Tieren, die im unter Beispiel 3 beschriebenen Experiment behandelt wurden. […] Bcl-2-Transkripte wurden in Hirnschnitten durch in-situ-Hybridisierung mit einer spezifischen Oligonukleotid-Sonde (Clark RSB et al., Apoptosis-suppressor gene bcl-2 expression after traumatic brain injury in rats, J Neurosci 17: 9172-9182, 1997) dargestellt, und nach der im Beispiel 3 beschriebenen Methode densitometrisch quantifiziert.

Oxytozin-Rezeptoren = test: Density of oxytocin receptors in brain and myometrium by 125I-OVTA autoradiography after 7 days of treatment; assay type: in vivo, Ratten; settings: 1 µg daily s.c. for 7 days
Text: Jede Säule repräsentiert x ± SEM von 4-5 Einzelbestimmungen.

Endometriums = test: Computer-aided measurement of endometrium thickness in uterus preparations; assay type: in vivo, Ratten; settings: ovariectomised rats, 1 µg daily s.c. for 7 days
kognitive Leistung = test: Conditioned escape behaviour (retention and extinction) in ovariectomised rats after chronic treatment; assay type: in vivo, Wistar-Ratten; settings: 30 µg daily s.c., retention tested on day 7
Text: (§2) Eine Korrelation zwischen Serum-Estrogenspiegel und kognitiver Leistung wurde auch im Tierversuchsmodell nachgewiesen (Kondo Y, Suzuki K, Sakuma Y, Estrogen aleviates cognitive dysfunction following transient brain ischemia in ovariectomized gerbils, Neurosci Lett 238: 45-48, 1997). […] Die gesamte Behandlungsdauer war 14 Tage. Am 5. und 6. Behandlungstag wurden Trainingssitzungen zum Erlernen eines konditionierten Escape-Verhaltens nach einer etablierten Methode (Diaz-Veliz G et al., Influence of the estrous cycle, ovariectomy and estradiol replacement upon the acquisition of conditioned avoidance responses in rats, Physiol Behav 46: 397-401, 1989) durchgeführt. Jedes Tier wurde in einer Sitzung 50 Mal der Kombination aus einem unbedingten (elektrische Reizung) und zwei konditionierenden Stimuli (Licht- und Schall-Signal) exponiert. Am 7. Behandlungstag wurde die Retention des erlernten Verhaltensmusters getestet. Nach einer 6-tägigen Unterbrechung der Lernsitzungen, wurde am 14. Behandlungstag die Extinktion des erlernten konditionierten Verhaltens ermittelt. Die Anzahl der korrekten Verhaltensreaktionen (Escape in das "sichere" Abteil des Apparats innerhalb von drei Sekunden nach Präsentation der konditionierenden Signale) aus 50 aufeinanderfolgenden Expositionen wurde als Kriterium für die Bewertung der Retention bzw. Extinktion des erlernten Verhaltens verwendet.

Uterus [3] = test: Uterus weight after 14 days of daily subcutaneous treatment (cognition experiment); assay type: in vivo, Wistar-Ratten; settings: for Uterusgewichte (x ± SEM): after 14 days of daily s.c. treatment: 17b-Estradiol 1 µg, 17a-Estradiol 100 µg, prototype 30 µg, n = 8-10, OVX 53 ± 2
Text: as §2

[4] = Serum concentration of 17b-Estradiol after 7 days of subcutaneous treatment (biotransformation); assay type: in vivo, Ratten; settings: ovariectomised rats, daily s.c. for 7 days: 17a-Estradiol 100 µg, prototype 30 µg, 17b-Estradiol 1 µg; placebo below detection limit
Text: Sternzeichen bezeichnen signifikante Differenzen im Vergleich zu den Werten, die bei Placebo-behandelten Tieren gemessen wurden; die Letzteren waren unterhalb der Nachweisgrenze der Methode; jede Behandlungsgruppe bestand aus 7 Tieren.

**Q.** With `C[C@]12CCC3=C(CCc4cc(O)ccc43)[C@@]13C[C@H]3C[C@H]2O` [15βH,3'H-Cycloprop[14,15]-estra-1,3,5(10),8-tetraen-3,17α-diol] as the compound, how does the “Wirksamkeit im weiblichen Genitaltrakt im Vergleich mit 17a-Estradiol” value (Uterus [1]; comparison in words) read?
**A.** vergleichbar mit derjenigen von 17a-Estradiol

**Q.** What about the “Wirksamkeit im weiblichen Genitaltrakt, geringer als diese von 17b-Estradiol” value (Uterus [1]; fold lower than 17b-Estradiol, from uterotropic daily doses) of the same compound?
**A.** ~1000 -fach

**Q.** What about the Uterus-Vergrößerung (Uterus [1]; ovariectomised rats, 0,01, 0,1 and 1 µg daily s.c. for 7 days (Example 3)) of the same compound?
**A.** keiner Uterus-Vergrößerung

**Q.** And the “Tagesdosen für signifikante Vergrößerung des Uterus (uterotroper Effekt)” value (Uterus [1]; ovariectomised rats, s.c. osmotic minipumps, 7 days, uterus wet weight per 100 g body weight)?
**A.** 30 µg

**Q.** What about the “Effizienz (Transkription des Reporters), geringer als diese von 17b-Estradiol” value [2] of the same compound?
**A.** 10 -fach

**Q.** What about the “Transkription des Oxytozin-Gens im PVN” value (Oxytocin-Gens) of the same compound?
**A.** dosisabhängig stimuliert

**Q.** And the “Expression von bcl-2 im Gyrus dentatus” value (bcl-2)?
**A.** dosisabhängigen Stimulation

**Q.** And the “Dichte von Oxytozin-Rezeptoren in allen untersuchten Hirnstrukturen” value (Oxytozin-Rezeptoren; VMN and BNST, ovariectomised rats, 50 pM 125I-OVTA)?
**A.** signifikanten Anstieg

**Q.** And the “Dichte von Oxytozin-Rezeptoren im VMN im Vergleich mit 17b-Estradiol” value (Oxytozin-Rezeptoren; VMN)?
**A.** schwächeren Effekt als 17b-Estradiol

**Q.** And the “Induktion von Oxytozin-Bindungsstellen im Myometrium” value (Oxytozin-Rezeptoren; ovariectomised rats)?
**A.** signifikant geringere Wirkung

**Q.** What about the “Stärke des Endometriums (endometriale Proliferation)” value (from here on “Stärke des Endometriums”) (Endometriums) of the same compound?
**A.** nicht beeinflussen

**Q.** And the “Retention des erlernten Verhaltensmusters” value (kognitive Leistung)?
**A.** estrogen-ähnlichen stimulierenden Effekt

**Q.** What about the “Uterusgewichte (x ± SEM)” value (Uterus [3]) of the same compound?
**A.** 108 ± 4 mg/100g KG

**Q.** What about the “uterotrope Wirkung im Vergleich mit 17b-Estradiol in einer täglichen Dosis von 1 µg” value (Uterus [3]; prototype 30 µg daily s.c., 14 days) of the same compound?
**A.** signifikant geringer

**Q.** What about the “Serumkonzentrationen von 17b-Estradiol” value [4] of the same compound?
**A.** keinen Anstieg

**Q.** Which “Induktion von Oxytozin-Bindungsstellen im Myometrium” value (Oxytozin-Rezeptoren; ovariectomised rats) does the source give for `C[C@]12CC[C@@H]3c4ccc(O)cc4CC[C@H]3[C@@H]1CC[C@H]2O` [17a-Estradiol] here?
**A.** signifikant geringere Wirkung

**Q.** And the “Stärke des Endometriums” value (Endometriums)?
**A.** nicht beeinflussen

**Q.** What about the “Serumkonzentrationen von 17b-Estradiol” value [4] of the same compound?
**A.** meßbare Konzentrationen

**Q.** With `C[C@]12CC[C@@H]3c4ccc(O)cc4CC[C@H]3[C@@H]1CC[C@@H]2O` [17b-Estradiol] as the compound, how does the “Stärke des Endometriums” value (Endometriums) read?
**A.** signifikante endometriale Proliferation

**Q.** What about the “Uterusgewichte (x ± SEM)” value (Uterus [3]) of the same compound?
**A.** 187 ± 9 mg/100g KG

**Q.** And the “Serumkonzentrationen von 17b-Estradiol” value [4]?
**A.** meßbare Konzentrationen
